Experimental data as given in patent US10407445B2, “Hepatitis C virus inhibitors” (ENANTA PHARMACEUTICALS, INC., priority 2013, dated 2019).

Legend:
Assay type in all cases: cell-based
[1] = tested on: GT1a replicon encoding NS5A mutation Y93C; experiment: Transient replication assay, GT1a replicon with NS5A mutation Y93C; conditions: Hepatitis C virus, read-out: EC50 1a Y93C
HCV GT 1a replicon = experiment: HCV replicon assay, stable GT 1a replicon (Renilla luciferase); conditions: Hepatitis C virus, GT1A; HCV GT 1a replicon, 72 h; read-out: EC50 1a
Summary of the method: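 Huh-7.5 cells stably carrying a GT1a replicon (H77-based) with Renilla luciferase-Neo reporter, 4000 cells/well, sixteen-point half-log compound series, phenol red-free DMEM without G418. Luciferase read after 72 h relative to DMSO-treated cells gives EC50.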

[2] = tested on: GT1a replicon encoding NS5A mutation Q30R; experiment: Transient replication assay, GT1a replicon with NS5A mutation Q30R; conditions: Hepatitis C virus, read-out: EC50 1a Q30R

Structure (SMILES)	EC50 [1] [nM]	EC50 (HCV GT 1a replicon) [nM]	EC50 [2] [nM]
COC(=O)N[C@H](C(=O)N1C[C@@]2(CCOC2)C[C@H]1c1ncc(-c2ccc(-c3ccc4c(ccc5nc([C@@H]6C[C@]7(CCOC7)CN6C(=O)[C@@H](NC(=O)OC)C(C)C)[nH]c54)c3)cc2)[nH]1)C(C)C [Compound 49]	0.4	0.01	0.2
COC(=O)N[C@H](C(=O)N1C[C@@]2(CCCOC2)C[C@H]1c1ncc(-c2ccc(-c3ccc4c(ccc5nc([C@@H]6CCCN6C(=O)[C@@H](NC(=O)OC)C(C)C)[nH]c54)c3)cc2)[nH]1)C(C)C [Compound 27]	0.02	0.013	0.06
COC(=O)N[C@H](C(=O)N1CCC[C@H]1c1ncc(-c2ccc(-c3ccc4c(ccc5nc([C@@H]6C[C@@]7(CCCOC7)CN6C(=O)[C@@H](NC(=O)OC)C(C)C)[nH]c54)c3)cc2)[nH]1)C(C)C [Compound 44]	0.2	0.01	0.1
